In paper PMC8154581, “Discovery of Novel Thiophene-arylamide Derivatives as DprE1 Inhibitors with Potent Antimycobacterial Activities” (Journal of Medicinal Chemistry, 2021):
Values after ≈ are worked out from the molar mass of the structure shown. Where two headings read alike, the source gives them in different places.

What was measured:
M. tuberculosis H37Rv = test: MIC against replicating M. tuberculosis H37Rv, microplate Alamar blue assay (MABA); format: cell-based
Vero cells = test: Cytotoxicity assay in Vero cells (MTT); format: cell-based; details: for IC50: Chlorocebus sabaeus, Vero cells, 48 h, read-out: IC50 (Vero)
[1] = Mycobacterium tuberculosis, H37RV, against M. tuberculosis H37Rv, Tables 1-3, read-out: MIC
[2] = Mycobacterium tuberculosis, H37RV, supplementary CSV, same values as Tables 1-3, read-out: Minimal inhibit concentration
[3] = against M. tuberculosis H37Rv, Tables 1-3

Compound: CCCNC(=O)c1ccc(C(=O)Nc2sccc2C(=O)NC(=O)OCC)cc1 [Compound 23a, Ethyl (2-(4-(Propylcarbamoyl)benzamido)thiophene-3-carbonyl)carbamate]
- MIC (M. tuberculosis H37Rv; [1]): 0.2 µg/mL (≈ 0.496 µM)
- MIC (M. tuberculosis H37Rv; [2]): 0.2 µg/mL (≈ 0.496 µM)
- MIC (M. tuberculosis H37Rv; [3]): 0.20 µg/mL (≈ 0.496 µM)
- melting point: 219 to 220 °C
- SI (Vero cells): >320
- IC50 (Vero cells): > 64 µg/mL

Compound: CCOC(=O)NC(=O)c1ccsc1NC(=O)c1ccc(C(=O)N(C)CC)cc1 [Compound 23b, Ethyl (2-(4-(Ethyl(methyl)carbamoyl)benzamido)thiophene-3-carbonyl)carbamate]
- MIC (M. tuberculosis H37Rv; [1]): 0.95 µg/mL (≈ 2.35 µM)
- MIC (M. tuberculosis H37Rv; [2]): 0.95 µg/mL (≈ 2.35 µM)
- melting point: 161 to 162 °C
- SI (Vero cells): >67
- IC50 (Vero cells): > 64 µg/mL

Compound: CCOC(=O)NC(=O)c1ccsc1NC(=O)c1ccc(C(=O)N(CC)CC)cc1 [Compound 23c, Ethyl (2-(4-(Diethylcarbamoyl)benzamido)thiophene-3-carbonyl)carbamate]
- MIC (M. tuberculosis H37Rv; [1]): 0.28 µg/mL (≈ 0.671 µM)
- MIC (M. tuberculosis H37Rv; [2]): 0.28 µg/mL (≈ 0.671 µM)
- melting point: 178 to 179 °C
- SI (Vero cells): >229
- IC50 (Vero cells): > 64 µg/mL

Compound: CCOC(=O)NC(=O)c1ccsc1NC(=O)c1ccc(C(=O)NC23CC4CC(CC(C4)C2)C3)cc1 [Compound 23d, Ethyl (2-(4-(((3S,5S,7S)-Adamantan-1-yl)carbamoyl)benzamido)thiophene-3-carbonyl)carbamate]
- MIC (M. tuberculosis H37Rv; [1]): 0.12 µg/mL (≈ 0.242 µM)
- MIC (M. tuberculosis H37Rv; [2]): 0.12 µg/mL (≈ 0.242 µM)
- melting point: 157 to 158 °C
- SI (Vero cells): 16
- IC50 (Vero cells): 1.96 µg/mL (≈ 3.95 µM)

Compound: CCOC(=O)NC(=O)c1ccsc1NC(=O)c1ccc(C(=O)NC2CCCCC2)cc1 [Compound 23e, Ethyl (2-(4-(Cyclohexylcarbamoyl)benzamido)thiophene-3-carbonyl)carbamate]
- MIC (M. tuberculosis H37Rv; [1]): 0.5 µg/mL (≈ 1.13 µM)
- MIC (M. tuberculosis H37Rv; [2]): 0.5 µg/mL (≈ 1.13 µM)
- melting point: > 250 °C
- SI (Vero cells): >128
- IC50 (Vero cells): > 64 µg/mL

Compound: CCOC(=O)NC(=O)c1ccsc1NC(=O)c1ccc(C(=O)NC2CCC(C)(C)CC2)cc1 [Compound 23f, Ethyl (2-(4-((4,4-Dimethylcyclohexyl)carbamoyl)benzamido)thiophene-3-carbonyl)carbamate]
- MIC (M. tuberculosis H37Rv; [1]): 0.94 µg/mL (≈ 1.99 µM)
- MIC (M. tuberculosis H37Rv; [2]): 0.94 µg/mL (≈ 1.99 µM)
- melting point: > 250 °C
- SI (Vero cells): >68
- IC50 (Vero cells): > 64 µg/mL

Compound: CCOC(=O)NC(=O)c1ccsc1NC(=O)c1ccc(C(=O)Nc2ccccc2)cc1 [Compound 23g, Ethyl (2-(4-(Phenylcarbamoyl)benzamido)thiophene-3-carbonyl)carbamate]
- MIC (M. tuberculosis H37Rv; [1]): 0.12 µg/mL (≈ 0.274 µM)
- MIC (M. tuberculosis H37Rv; [2]): 0.12 µg/mL (≈ 0.274 µM)
- melting point: > 250 °C
- SI (Vero cells): 191
- IC50 (Vero cells): 23 µg/mL (≈ 52.5 µM)

Compound: CCOC(=O)NC(=O)c1ccsc1NC(=O)c1ccc(C(=O)N2CCCC2)cc1 [Compound 23i, Ethyl (2-(4-(Pyrrolidine-1-carbonyl)benzamido)thiophene-3-carbonyl)carbamate]
- MIC (M. tuberculosis H37Rv; [1]): 0.2 µg/mL (≈ 0.481 µM)
- MIC (M. tuberculosis H37Rv; [2]): 0.2 µg/mL (≈ 0.481 µM)
- IC50 (Vero cells): > 64 µg/mL

Compound: CCOC(=O)NC(=O)c1ccsc1NC(=O)c1ccc(C(=O)N2CCCCCC2)cc1 [Compound 23k, Ethyl (2-(4-(Azepane-1-carbonyl)benzamido)thiophene-3-carbonyl)carbamate]
- MIC (M. tuberculosis H37Rv; [1]): 0.22 µg/mL (≈ 0.496 µM)
- MIC (M. tuberculosis H37Rv; [2]): 0.22 µg/mL (≈ 0.496 µM)
- IC50 (Vero cells): 48.4 µg/mL (≈ 109 µM)

Compound: CCOC(=O)NC(=O)c1ccsc1NC(=O)c1ccc(C(=O)N2CCC(C)CC2)cc1 [Compound 23l, Ethyl (2-(4-(4-Methylpiperidine-1-carbonyl)benzamido)thiophene-3-carbonyl)carbamate]
- MIC (M. tuberculosis H37Rv; [1]): 0.03 µg/mL (≈ 0.0676 µM)
- MIC (M. tuberculosis H37Rv; [2]): 0.03 µg/mL (≈ 0.0676 µM)
- IC50 (Vero cells): > 64 µg/mL

Compound: CCOC(=O)NC(=O)c1ccsc1NC(=O)c1ccc(C(=O)N2CCC(F)(F)CC2)cc1 [Compound 23n, Ethyl (2-(4-(4,4-Difluoropiperidine-1-carbonyl)benzamido)thiophene-3-carbonyl)carbamate]
- MIC (M. tuberculosis H37Rv; [1]): 0.25 µg/mL (≈ 0.537 µM)
- MIC (M. tuberculosis H37Rv; [2]): 0.25 µg/mL (≈ 0.537 µM)
- IC50 (Vero cells): > 64 µg/mL

Compound: CCOC(=O)NC(=O)c1ccsc1NC(=O)c1ccc(C(=O)N2CCOCC2)cc1 [Compound 23o, Ethyl (2-(4-(Morpholine-4-carbonyl)benzamido)thiophene-3-carbonyl)carbamate]
- MIC (M. tuberculosis H37Rv; [1]): 1.66 µg/mL (≈ 3.85 µM)
- MIC (M. tuberculosis H37Rv; [2]): 1.66 µg/mL (≈ 3.85 µM)
- melting point: 159 to 160 °C

Compound: CCOC(=O)NC(=O)c1ccsc1NC(=O)c1cccc(C(=O)N2CCCCC2)c1 [Compound 24a, Ethyl (2-(3-(Piperidine-1-carbonyl)benzamido)thiophene-3-carbonyl)carbamate]
- MIC (M. tuberculosis H37Rv; [1]): 3.7 µg/mL (≈ 8.61 µM)
- MIC (M. tuberculosis H37Rv; [2]): 3.7 µg/mL (≈ 8.61 µM)

Compound: CCOC(=O)NC(=O)c1ccsc1NC(=O)c1ccc(C(=O)N2CCCCC2)cc1F [Compound 24b, Ethyl (2-(2-Fluoro-4-(piperidine-1-carbonyl)benzamido)thiophene-3-carbonyl)carbamate]
- MIC (M. tuberculosis H37Rv; [1]): 0.12 µg/mL (≈ 0.268 µM)
- MIC (M. tuberculosis H37Rv; [2]): 0.12 µg/mL (≈ 0.268 µM)
- IC50 (Vero cells): > 64 µg/mL

Compound: CCOC(=O)NC(=O)c1ccsc1NC(=O)c1ccc(C(=O)N2CCCCC2)c(C)c1 [Compound 24g, Ethyl (2-(3-Methyl-4-(piperidine-1-carbonyl)benzamido)thiophene-3-carbonyl)carbamate]
- MIC (M. tuberculosis H37Rv; Mycobacterium tuberculosis, H37RV, against M. tuberculosis H37Rv, Tables 1-3): 0.12 µg/mL (≈ 0.271 µM)
- MIC (M. tuberculosis H37Rv; [2]): 0.12 µg/mL (≈ 0.271 µM)
- IC50 (Vero cells): 53.1 µg/mL (≈ 120 µM)

Compound: CCOC(=O)NC(=O)c1ccsc1NC(=O)c1ccc2cc(C(=O)N3CCCCC3)ccc2c1 [Compound 24h, Ethyl (2-(6-(Piperidine-1-carbonyl)-2-naphthamido)thiophene-3-carbonyl)carbamate]
- MIC (M. tuberculosis H37Rv; [1]): 3.13 µg/mL (≈ 6.53 µM)
- MIC (M. tuberculosis H37Rv; [2]): 3.13 µg/mL (≈ 6.53 µM)
- melting point: 177 to 178 °C

Compound: CCOC(=O)NC(=O)c1ccsc1NC(=O)c1ccc(-c2ccc(C(=O)N3CCCCC3)cc2)cc1 [Compound 24i, Ethyl (2-(4′-(Piperidine-1-carbonyl)-[1,1′-biphenyl]-4-carboxamido)thiophene-3-carbonyl)carbamate]
- MIC (M. tuberculosis H37Rv; [1]): 7.76 µg/mL (≈ 15.3 µM)
- MIC (M. tuberculosis H37Rv; [2]): 7.76 µg/mL (≈ 15.3 µM)

Compound: CCOC(=O)NC(=O)c1ccsc1NC(=O)c1cc(C(=O)N2CCCCC2)c[nH]1 [Compound 24l, Ethyl (2-(4-(Piperidine-1-carbonyl)-1H-pyrrole-2-carboxamido)thiophene-3-carbonyl)carbamate]
- MIC (M. tuberculosis H37Rv; [1]): 1.77 µg/mL (≈ 4.23 µM)
- MIC (M. tuberculosis H37Rv; [2]): 1.77 µg/mL (≈ 4.23 µM)
- melting point: 183 to 184 °C

Compound: CCNC(=O)NC(=O)c1ccsc1NC(=O)c1ccc(C(=O)N2CCCCC2)cc1 [Compound 25c, N-(Ethylcarbamoyl)-2-(4-(piperidine-1-carbonyl)benzamido)thiophene-3-carboxamide]
- MIC (M. tuberculosis H37Rv; [1]): > 32 µg/mL
- MIC (M. tuberculosis H37Rv; [2]): > 32 µg/mL
- melting point: 223 to 224 °C

Compound: NC(=O)c1ccsc1NC(=O)c1ccc(C(=O)N2CCCCC2)cc1 [Compound 25d, 2-(4-(Piperidine-1-carbonyl)benzamido)thiophene-3-carboxamide]
- MIC (M. tuberculosis H37Rv; [1]): > 32 µg/mL
- MIC (M. tuberculosis H37Rv; [2]): > 32 µg/mL

Compound: COC(=O)C1CN(C(=O)c2ccsc2NC(=O)c2ccc(C(=O)N3CCCCC3)cc2)C1 [Compound 25e, Methyl 1-(2-(4-(Piperidine-1-carbonyl)benzamido)thiophene-3-carbonyl)azetidine-3-carboxylate]
- MIC (M. tuberculosis H37Rv; [1]): > 32 µg/mL
- MIC (M. tuberculosis H37Rv; [2]): > 32 µg/mL
- melting point: 154 to 155 °C

Compound: COC(=O)C1CCN(C(=O)c2ccsc2NC(=O)c2ccc(C(=O)N3CCCCC3)cc2)CC1 [Compound 25f, Methyl 1-(2-(4-(Piperidine-1-carbonyl)benzamido)thiophene-3-carbonyl)piperidine-4-carboxylate]
- MIC (M. tuberculosis H37Rv; [1]): 15.5 µg/mL (≈ 32.1 µM)
- MIC (M. tuberculosis H37Rv; [2]): 15.5 µg/mL (≈ 32.1 µM)
- melting point: 169 to 170 °C

Compound: COC(=O)N1CCN(C(=O)c2ccsc2NC(=O)c2ccc(C(=O)N3CCCCC3)cc2)CC1 [Compound 25g, Methyl 4-(2-(4-(Piperidine-1-carbonyl)benzamido)thiophene-3-carbonyl)piperazine-1-carboxylate]
- MIC (M. tuberculosis H37Rv; [1]): > 32 µg/mL
- MIC (M. tuberculosis H37Rv; [2]): > 32 µg/mL
- melting point: 113 to 114 °C

Compound: CCOC(=O)N1CCN(C(=O)c2ccsc2NC(=O)c2ccc(C(=O)N3CCCCC3)cc2)CC1 [Compound 25h, Ethyl 4-(2-(4-(Piperidine-1-carbonyl)benzamido)thiophene-3-carbonyl)piperazine-1-carboxylate]
- MIC (M. tuberculosis H37Rv; [1]): > 32 µg/mL
- MIC (M. tuberculosis H37Rv; [2]): > 32 µg/mL
- melting point: 134 to 135 °C

Compound: Cc1cnc(NC(=O)c2ccsc2NC(=O)c2ccc(C(=O)N3CCCCC3)cc2)s1 [Compound 25i, N-(5-Methylthiazol-2-yl)-2-(4-(piperidine-1-carbonyl)benzamido)thiophene-3-carboxamide]
- MIC (M. tuberculosis H37Rv; [1]): > 32 µg/mL
- MIC (M. tuberculosis H37Rv; [2]): > 32 µg/mL
- melting point: 236 to 238 °C

Compound: Cc1cnc(NC(=O)c2ccsc2NC(=O)c2ccc(C(=O)N3CCCCC3)cc2)cn1 [Compound 25m, N-(5-Methylpyrazin-2-yl)-2-(4-(piperidine-1-carbonyl)benzamido)thiophene-3-carboxamide]
- MIC (M. tuberculosis H37Rv; [1]): > 32 µg/mL
- MIC (M. tuberculosis H37Rv; [2]): > 32 µg/mL
- melting point: 177 to 179 °C

Compound: Cc1cccc(NC(=O)c2ccsc2NC(=O)c2ccc(C(=O)N3CCCCC3)cc2)n1 [Compound 25n, N-(6-Methylpyridin-2-yl)-2-(4-(piperidine-1-carbonyl)benzamido)thiophene-3-carboxamide]
- MIC (M. tuberculosis H37Rv; [1]): > 32 µg/mL
- MIC (M. tuberculosis H37Rv; [2]): > 32 µg/mL
- melting point: 171 to 174 °C

Compound: Cc1cc(C)nc(NC(=O)c2ccsc2NC(=O)c2ccc(C(=O)N3CCCCC3)cc2)n1 [Compound 25p, N-(4,6-Dimethylpyrimidin-2-yl)-2-(4-(piperidine-1-carbonyl)benzamido)thiophene-3-carboxamide]
- MIC (M. tuberculosis H37Rv; [1]): > 32 µg/mL
- MIC (M. tuberculosis H37Rv; [2]): > 32 µg/mL
- melting point: 189 to 190 °C

Compound: Cc1ccc2sc(NC(=O)c3ccsc3NC(=O)c3ccc(C(=O)N4CCCCC4)cc3)nc2c1 [Compound 25q, N-(5-Methylbenzo[d]thiazol-2-yl)-2-(4-(piperidine-1-carbonyl)benzamido)thiophene-3-carboxamide]
- MIC (M. tuberculosis H37Rv; [1]): > 32 µg/mL
- MIC (M. tuberculosis H37Rv; [2]): > 32 µg/mL
- melting point: > 250 °C

Compound: COc1nc2ccc(Br)cc2cc1[C@@H](c1ccccc1)[C@@](O)(CCN(C)C)c1cccc2ccccc12 [bedaquiline, reference compound]
- MIC (M. tuberculosis H37Rv; Mycobacterium tuberculosis, H37RV, Table 4, read-out: MIC H37Rv): 0.036 µg/mL (≈ 0.0648 µM)

Compound: N-(4-Methylpyridin-2-yl)-2-(4-(piperidine-1-carbonyl)benzamido)thiophene-3-carboxamide [Compound 25o]
- MIC (M. tuberculosis H37Rv; [3]): >32 µg/mL
- Minimal inhibit concentration (M. tuberculosis H37Rv; supplementary CSV, same values as Tables 1-3): >32 µg/mL
